Results taken from patent US10174002B2, “Pyridine derivatives as CFTR modulators” (NuBridge BioSciences, priority 2015, dated 2019).

Molecular target: T1, ΔF508 mutant CFTR (Homo sapiens, UniProt P13569, DEL508-508)
T1 construct: expressed in transfected cells; host or cells: Fischer rat thyroid (FRT) cells, co-expressing the halide-sensitive YFP-H148Q/I152L
Experiment: Fluorescence Assay of ΔF508 mutant CFTR activity (halide-sensitive YFP quenching by iodide influx in FRT cells)
Type: cell-based
Parameters: key: fold of mean activity with forskolin alone (I− quenching rate)
Conditions: test compounds 20 μM with forskolin 20 μM, 20 min; FRT cells expressing ΔF508-CFTR and YFP-H148Q/I152L, incubated at 27° C. 20-24 h; rate of fluorescence quenching by I−, normalized to mean activity with forskolin alone
Source text: The ΔF508 mutant CFTR activities of the CFTR modulators are detected using the Fluorescence Assay developed by Pedemonte (Pedemonte N., et al., Antihypertensive 1,4-dihydropyridines as correctors of the cystic fibrosis transmembrane conductance regulator channel gating defect caused by cystic fibrosis mutations, Mol. Pharmacol., 2005, 68, 1736-1746).
Fischer rat thyroid (FRT) cells, stably transfected with ΔF508 were retransfected with the YFP-H148Q/I152L fluorescent protein. The cells were plated (100,000 cells/well) on black 96-well microplates with clear plastic bottom (Corning Life Sciences, Acton, Mass.).
The 96-well microplates containing FRT cells expressing F508-CFTR and the halide-sensitive YFP were incubated at 27° C. for 20 to 24 h to allow rescue of the mutant protein to the plasma membrane. After incubation, cells were washed with PBS (containing 137 mM NaCl, 2.7 mM KCl, 8.1 mM Na2HPO4, 1.5 mM KH2PO4, 1 mM CaCl2, and 0.5 mM MgCl2) and stimulated for 20 min with forskolin (20 μM) and test compounds (20 μM) in a final volume of 60 μl. Microplates were then transferred to a microplate reader for CFTR activity determination. Each assay consisted of a continuous 14-s fluorescence reading (5 points per second) with 2 s before and 12 s after injection of 165 μl of an iodide-containing solution (PBS with Cl^− replaced by I^−). Final iodide concentration in the wells was 100 mM. […] To determine I^− influx rate, the final 11 s of the data for each well were fitted with an exponential function to extrapolate initial slope. CFTR activity was determined by measuring the rate of fluorescence quenching induced by extracellular addition of I^−. Data are normalized to the mean activity measured in the presence of forskolin alone.

T1 sequence (P13569 with tags, fused parts or gaps DEL508-508): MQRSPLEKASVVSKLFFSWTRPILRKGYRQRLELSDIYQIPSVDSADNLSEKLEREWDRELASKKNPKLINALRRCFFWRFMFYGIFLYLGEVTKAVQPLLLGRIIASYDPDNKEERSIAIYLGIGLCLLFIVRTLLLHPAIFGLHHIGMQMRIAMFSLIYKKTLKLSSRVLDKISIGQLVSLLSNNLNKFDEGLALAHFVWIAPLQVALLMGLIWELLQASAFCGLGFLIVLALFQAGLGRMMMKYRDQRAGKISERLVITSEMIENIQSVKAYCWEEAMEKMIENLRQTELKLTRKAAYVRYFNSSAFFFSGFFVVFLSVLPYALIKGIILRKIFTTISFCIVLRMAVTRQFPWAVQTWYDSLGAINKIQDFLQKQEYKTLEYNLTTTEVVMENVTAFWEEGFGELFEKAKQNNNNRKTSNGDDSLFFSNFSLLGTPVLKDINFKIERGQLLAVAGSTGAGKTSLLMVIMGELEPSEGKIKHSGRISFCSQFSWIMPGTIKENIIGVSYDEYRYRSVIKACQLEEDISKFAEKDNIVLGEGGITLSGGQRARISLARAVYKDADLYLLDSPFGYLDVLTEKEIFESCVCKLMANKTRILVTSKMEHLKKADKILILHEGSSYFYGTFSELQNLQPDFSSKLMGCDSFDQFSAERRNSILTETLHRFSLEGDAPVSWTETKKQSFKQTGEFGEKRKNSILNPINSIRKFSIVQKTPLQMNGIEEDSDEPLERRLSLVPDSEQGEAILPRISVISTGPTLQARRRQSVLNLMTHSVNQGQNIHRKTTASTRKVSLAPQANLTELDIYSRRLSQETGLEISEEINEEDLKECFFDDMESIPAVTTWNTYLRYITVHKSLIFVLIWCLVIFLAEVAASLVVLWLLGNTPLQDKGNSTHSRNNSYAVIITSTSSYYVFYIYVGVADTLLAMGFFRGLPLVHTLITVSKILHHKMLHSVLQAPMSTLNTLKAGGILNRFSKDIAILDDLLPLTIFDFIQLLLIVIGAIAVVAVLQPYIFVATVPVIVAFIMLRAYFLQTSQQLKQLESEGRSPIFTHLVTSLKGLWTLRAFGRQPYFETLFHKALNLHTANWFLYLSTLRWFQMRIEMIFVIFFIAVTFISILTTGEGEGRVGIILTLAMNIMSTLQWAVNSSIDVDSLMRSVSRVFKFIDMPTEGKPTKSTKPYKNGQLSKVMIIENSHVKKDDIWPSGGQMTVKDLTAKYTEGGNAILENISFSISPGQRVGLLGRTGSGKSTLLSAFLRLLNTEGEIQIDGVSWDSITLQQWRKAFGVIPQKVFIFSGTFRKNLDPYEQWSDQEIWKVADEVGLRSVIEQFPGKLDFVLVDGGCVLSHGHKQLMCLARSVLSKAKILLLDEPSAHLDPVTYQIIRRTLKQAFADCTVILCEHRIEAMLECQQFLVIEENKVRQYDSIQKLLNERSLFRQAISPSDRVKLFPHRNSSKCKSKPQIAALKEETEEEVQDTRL

CFTR Activity	Compound
3.1	Cl.NCC(CO)COc1ccncc1NC(=O)c1nc(-c2c(F)cccc2F)c(C(F)(F)F)cc1N (stereo not drawn) [Example 59, 3-amino-N-(4-(3-amino-2-(hydroxymethyl)propoxy)pyridin-3-yl)-6-(2,6-difluorophenyl)-5-(trifluoromethyl)picolinamide hydrochloride]
5.7	Cl.NC1CCCC(Oc2ccncc2NC(=O)c2ccc(C(F)(F)F)c(-c3c(F)cccc3F)n2)C1 (stereo not drawn) [Example 60, N-(4-((3-aminocyclohexyl)oxy)pyridin-3-yl)-6-(2,6-difluorophenyl)-5-(trifluoromethyl)picolinamide hydrochloride]
6.1	Cl.Nc1cc(C(F)(F)F)c(-c2c(F)cccc2F)nc1C(=O)Nc1cnccc1OC1CCCC(N)C1 (stereo not drawn) [Example 61, 3-amino-N-(4-((3-aminocyclohexyl)oxy)pyridin-3-yl)-6-(2,6-difluorophenyl)-5-(trifluoromethyl)picolinamide hydrochloride]
